According to ChEMBL document CHEMBL1201862, “PubChem BioAssay data set” (2004):
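Assay format: 96-well plates, 48-hour exposure. Abbreviation: GI50, concentration required for 50% inhibition of growth.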 Active and inactive are the calls of the source. Cut-off read from the data, not from the text of the source: active = GI50 up to about 1.1 µM and inactive = higher.

Experiments:
Assay in all cases: NCI anticancer screen, dose series, 48 h
[1] = tested on: LXFL 529
[2] = tested on: DLD-1
[3] = tested on: DMS-114
[4] = tested on: RXF 631
[5] = tested on: KM-20L2
[6] = tested on: DMS-273
[7] = tested on: XF498
[8] = tested on: HOP-18

Measured: GI50

OCCN1CCN(CCO)Cc2ccccc2OCCOc2ccccc2C1
inactive: [1] 64.4 µM | [2] > 100 µM | [3] > 100 µM | [4] > 100 µM | [5] > 100 µM | [6] > 100 µM

C=CC1(C)CCC2=C(CCC3C(C)(C(=O)OC)CCCC23C)C1=O (stereo unspecified)
inactive: [1] 18.5 µM | [2] 18.5 µM | [3] 15.3 µM | [4] 16.2 µM | [5] 21.3 µM

O=C(CC1Sc2ccccc2NC1=O)Nc1ccc(Cl)cc1 (stereo unspecified)
inactive: [1] > 100 µM | [2] > 100 µM | [3] 48.4 µM | [7] > 100 µM | [8] 20 µM | [4] 83.6 µM | [5] 89.1 µM | [6] 83.4 µM

N#CC1C(=O)C(=O)N(c2ccccc2)C1=O (stereo unspecified)
inactive: [1] > 100 µM | [3] > 100 µM | [7] > 100 µM | [8] > 100 µM | [4] > 100 µM | [5] > 100 µM | [6] > 100 µM

CC12CC3CC(C1)CC(N=[N+]=[N-])(C3)C2
inactive: [1] > 100 µM | [2] > 100 µM | [3] > 100 µM | [7] > 100 µM | [8] > 100 µM | [4] > 100 µM | [5] > 100 µM | [6] > 100 µM

COC(=O)c1sc(=O)n(-c2ccccc2)c1SCc1ccccc1
inactive: [1] > 100 µM | [2] > 100 µM | [7] > 100 µM | [8] > 100 µM | [4] > 100 µM | [5] > 100 µM | [6] > 100 µM
